Reference: ChEMBL document CHEMBL3758176, “Synthesis of dihydrosterculic acid-based monoglucosyl diacylglycerol and its analogues and their biological evaluation” (Eur J Med Chem, 2016)
Calls of active or inactive are those of the source. The calls are words filed in the database; no cut-off is given here.

Experiments:
HUVEC = test: Cytotoxicity against HUVEC assessed as reduction in cell viability by MTT assay; type: cell-based, Homo sapiens
[1] = Cytotoxicity against human DU145 cells assessed as reduction in cell viability by MTT assay; type: functional, cell-based, DU-145
A549 = test: Cytotoxicity against human A549 cells assessed as reduction in cell viability by MTT assay; type: functional, cell-based
[2] = Cytotoxicity against human SKOV3 cells assessed as reduction in cell viability by MTT assay; type: functional, cell-based, SK-OV-3
MCF7 [3] = test: Cytotoxicity against human MCF7 cells assessed as reduction in cell viability by MTT assay; type: functional, cell-based
MCF7 [4] = test: Antiproliferative activity against human MCF7 cells assessed as decrease in cell proliferation at 5 to 10 uM after 24 hrs by bromodeoxyuridine cell proliferation assay relative to untreated control; type: functional, cell-based
MCF7 [5] = test: Induction of apoptosis in human MCF7 cells assessed as caspase-9 activation using AFC-conjugated Ac-LEHD as substrate at 5 to 10 uM incubated for 24 to 48 hrs by fluorescence assay relative to untreated control; type: functional
MCF7 [6] = test: Induction of apoptosis in human MCF7 cells assessed as caspase-3 activation using AFC-conjugated Ac-DEVD as substrate at 5 to 10 uM incubated for 24 to 48 hrs by fluorescence assay relative to untreated control; type: functional
[7] = Homo sapiens, HUVEC, read-out: IC50
[8] = Homo sapiens, DU-145, read-out: IC50
[9] = Homo sapiens, A549, read-out: IC50
[10] = Homo sapiens, SK-OV-3, read-out: IC50
[11] = Homo sapiens, MCF7, read-out: IC50

Compound: CCCCCCCCCCCC(=O)OC[C@H](CO[C@@H]1O[C@H](CO)[C@@H](O)[C@H](O)[C@H]1O)OC(=O)CCCCCCCCCCC
- IC50 (HUVEC; [7]): 96.1 µM
- IC50 [1, 8]: 54.9 µM
- IC50 (A549; [9]): 35.6 µM
- IC50 [2, 10]: 44.4 µM
- IC50 (MCF7 [3]; [11]): 32.6 µM

Compound: COc1cccc2c1C(=O)c1c(O)c3c(c(O)c1C2=O)C[C@@](O)(C(=O)CO)C[C@@H]3O[C@H]1C[C@H](N)[C@H](O)[C@H](C)O1 [DOXORUBICIN]
- IC50 (HUVEC; [7]): 79.6 µM
- IC50 [1, 8]: 0.7 µM
- IC50 [2, 10]: 0.7 µM

Compound: CCCCCCCC/C=C\CCCCCCCC(=O)O[C@H](COC(=O)CCCCCCCC1CC1CCCCCCCC)CO[C@@H]1O[C@H](CO)[C@@H](O)[C@H](O)[C@H]1O (stereo partly specified)
- IC50 (HUVEC; [7]): 99.8 µM
- IC50 [1, 8]: 38.9 µM
- IC50 (A549; [9]): 41.6 µM
- IC50 [2, 10]: 35.6 µM
- IC50 (MCF7 [3]; [11]): 38.2 µM

Compound: CCCCCCCC/C=C\CCCCCCCC(=O)OC[C@H](CO[C@@H]1O[C@H](CO)[C@@H](O)[C@H](O)[C@H]1O)OC(=O)CCCCCCC/C=C\CCCCCCCC
- IC50 (HUVEC; [7]): 110 µM
- IC50 [1, 8]: 20.1 µM
- IC50 (A549; [9]): 18.2 µM
- IC50 [2, 10]: 19.1 µM
- IC50 (MCF7 [3]; [11]): 17.6 µM
- Activity (MCF7 [4]): Active
- fold change (FC) (MCF7 [5]): 2
- fold change (FC) (MCF7 [6]): 2

Compound: CCCCCCCCCCCC(=O)OC[C@H](CO[C@@H]1O[C@H](COC(C)=O)[C@@H](OC(C)=O)[C@H](OC(C)=O)[C@H]1OC(C)=O)OC(=O)CCCCCCCCCCC
- IC50 (HUVEC; huvec): Not Active
- IC50 ([1]; du-145): Not Active
- IC50 (A549; a549): Not Active
- IC50 ([2]; sk-ov-3): Not Active
- IC50 (MCF7 [3]; mcf7): Not Active

Compound: C=CCCCCCCCCC(=O)OC[C@H](CO[C@@H]1O[C@H](CO)[C@@H](O)[C@H](O)[C@H]1O)OC(=O)CCCCCCCCC=C
- IC50 (HUVEC; [7]): 126 µM
- IC50 [1, 8]: 119 µM
- IC50 (A549; [9]): 106 µM
- IC50 [2, 10]: 89.6 µM
- IC50 (MCF7 [3]; [11]): 32.5 µM

Compound: C=CCCCCCCCCC(=O)OC[C@H](CO[C@@H]1O[C@H](COC(C)=O)[C@@H](OC(C)=O)[C@H](OC(C)=O)[C@H]1OC(C)=O)OC(=O)CCCCCCCCC=C
- IC50 (HUVEC; [7]): 119 µM
- IC50 [1, 8]: 33 µM
- IC50 (A549; [9]): 30.2 µM
- IC50 [2, 10]: 29.4 µM
- IC50 (MCF7 [3]; [11]): 25.6 µM

Compound: CCCCCCCCC1CC1CCCCCCCC(=O)OC[C@H](CO[C@@H]1O[C@H](CO)[C@@H](O)[C@H](O)[C@H]1O)OC(=O)CCCCCCCC1CC1CCCCCCCC (stereo partly specified)
- IC50 (HUVEC; [7]): 120 µM
- IC50 [1, 8]: 210 µM
- IC50 (A549; [9]): 124 µM
- IC50 [2, 10]: 112 µM
- IC50 (MCF7 [3]; [11]): 99.8 µM

Compound: CCCCCCCC/C=C\CCCCCCCC(=O)O[C@H](COC(=O)CCCCCCCC1CC1CCCCCCCC)CO[C@@H]1O[C@H](COC(C)=O)[C@@H](OC(C)=O)[C@H](OC(C)=O)[C@H]1OC(C)=O (stereo partly specified)
- IC50 (HUVEC; [7]): 122 µM
- IC50 [1, 8]: 186 µM
- IC50 (A549; a549): Not Active
- IC50 ([2]; sk-ov-3): Not Active
- IC50 (MCF7 [3]; [11]): 94.2 µM

Compound: CCCCCCCC/C=C\CCCCCCCC(=O)OC[C@H](CO[C@@H]1O[C@H](COC(C)=O)[C@@H](OC(C)=O)[C@H](OC(C)=O)[C@H]1OC(C)=O)OC(=O)CCCCCCC/C=C\CCCCCCCC
- IC50 (HUVEC; huvec): Not Active
- IC50 ([1]; du-145): Not Active
- IC50 (A549; a549): Not Active
- IC50 ([2]; sk-ov-3): Not Active
- IC50 (MCF7 [3]; mcf7): Not Active

Compound: CCCCCCCCC1CC1CCCCCCCC(=O)OC[C@H](CO[C@@H]1O[C@H](COC(C)=O)[C@@H](OC(C)=O)[C@H](OC(C)=O)[C@H]1OC(C)=O)OC(=O)CCCCCCCC1CC1CCCCCCCC (stereo partly specified)
- IC50 (HUVEC; huvec): Not Active
- IC50 ([1]; du-145): Not Active
- IC50 (A549; a549): Not Active
- IC50 ([2]; sk-ov-3): Not Active
- IC50 (MCF7 [3]; mcf7): Not Active
